Experimental data published in patent US10350240B2, “Lanthanum carbonate hydroxide, lanthanum oxycarbonate and methods of their manufacture and use” (Spectrum Pharmaceuticals, Inc., priority 2010, dated 2019).

Tests used:
Bulk density = assay type: physicochemical; conditions: Renazorb-013 (LCH), second block
Procedure: Bulk density in accordance with the invention can be determined by standard methods.
Graduated Cylinder Tare Weight was determined to be 225 g. 75 grams of sample was sieved into the graduated cylinder. The Gross Weight was determined to be 299.4 g. The volume of this sample was measured to be 141 mL. Thus, the Bulk Density of the powder is: Bulk Density (g/cc)=(299.4−225)/141=74.4/141=0.5277 g/cc Rounding this value to two decimal places gives a final reported value of 0.53 g/cc. 9.2 RSD=(R1−R2)×100/R1 where: RSD=Relative Standard Deviation (%) R1 & R2=Result of individual repeat (g/cc) 9.3 SR=R×100/V where: SR=Standard Recovery (%) R=Result for Reference Standard (g/cc) V=Historical average for standard (g/cc)

BET surface area = assay type: physicochemical; conditions: for Surface Area, BET Surface area (m^2/g): nitrogen adsorbate; for BET surface area of the material tested: material tested in FIG. 10
From the text: (§1) By “relatively greater” it is meant that if the processes of the '782 patent and those of the present invention were run under generally identical conditions but with, for example, ammonium carbonate or bicarbonate used instead of sodium carbonate, the surface area, as measured by BET or otherwise, of the LCH or lanthanum oxycarbonates of the present invention would be even higher than that resulting from the practice of the '782 patent. The ammonium carbonate process of the present invention should yield BET surface areas (SA) in the 1 to 100 m^2/g range for LCH. […] To this end, as used herein “relatively greater BET surface area” refers to the greater BET surface area of the LDOC compound of the present invention when compared to the respective compound in U.S. Pat. No. 7,588,782 when made using similar ingredients, and under similar conditions but using the process described in that patent. As noted above, both processes are capable of producing very fine particles/high surface area. Again without wishing to be bound by any particular theory of operation, it may be that the greater porosity of the materials resulting from the present invention may effectively increase the overall surface area (or more reactive surfaces) allowing for, inter alia, improved binding kinetics. This is predicated on the porosity of individual or primary particles, not aggregates. Thus, it is believed that the primary particles of the invention provide relatively greater porosity than would be measured for particles made in accordance with the '782 patent. […] Furthermore, “porosity” as used herein means cumulative adsorption pore volume determined using a static pressure surface area analyzer with nitrogen as the adsorbate and calculating the pore size by The Barrett, Joyner, and Halenda (BJH) method (Barrett E. P., Loyner L. G. and Halenda P. P., The determination of pore volume and area distributions in porous substances. I. Computations from nitrogen isotherms, J. Am. Chem. Soc. 73 (1951) pp. 373-380).
As contemplated herein, BET surface area of the lanthanum compounds disclosed herein may be determined as provided in U.S. Pat. No. 7,588,782.

[1] = Porosity (BJH pore volume, pore size; nitrogen adsorption, Micromeritics TriStar 3000); assay type: physicochemical; conditions: for Pore Size, Adsorption pore diameter (nm): BJH adsorption; for Pore volume, Adsorption (cumulative) (cm^3/g) / Surface Area, Adsorption (cumulative) (m^2/g): BJH adsorption cumulative; for Pore Size, Desorption pore diameter (nm): BJH desorption; for Pore volume, Desorption (cumulative) (cm^3/g) / Surface Area, Desorption (cumulative) (m^2/g): BJH desorption cumulative; for Pore volume, Total-<6.4182 nM (cm^3/g): pores <6.4182 nM
From the text: as §1
“Pore volume” as used herein refers to the cumulative adsorption pore volume. In one embodiment, the cumulative adsorption pore volume of the LDOC of the present invention is at least 0.015 cm^3/g. In another embodiment, it is at least 0.020 cm^3/g.
The porosity of the LDOC compound referred to herein as RZB-014 was analyzed and compared to that of the LDH and LDOC compounds of the '782 patent discussed above on a Micromeritics TriStar 3000 static pressure surface area analyzer using nitrogen as the adsorbate. The Barrett, Joyner, and Halenda (BJH) method was used to calculate pore size. This method uses the Kelvin model of pore filling and applies only to the mesopore (internal width between approximately 2 and 50 nm) and small macropore size range (internal width between 50 nm and approximately 300 nm).

[2] = Phosphate binding kinetics at constant pH, ICP-OES (FIG. 10); conditions: for phosphate binding at a pH of 3 or below: comparison of both LDOC materials; for amount of phosphate bound in 60 minutes: pH of about 6.5, 60 minutes, FIG. 10
From the text: FIG. 10 provides a graphical representation of the binding kinetics of LCH and a lanthanum oxycarbonate in accordance with the '782 patent (RZB-011, RZB-012), and LCH/La2O2CO3 produced in accordance with the present invention (RZB-013 and RZB-014) at 10, 20, 30, 40, […]
It is preferred that the amount of polymorph 037-0804 exceeds that of any other polymorph by weight. In one embodiment, the amount of polymorph 037-0804 is more than 50% of all polymorphs present and, in another embodiment, at least 90% of the polymorphs present of LDOC is La2O2CO3. In another embodiment, polymorph 037-0804 (La2O2CO3) is present in an amount of at least 95% by weight relative to other polymorphs and in still another embodiment, at least 99% by weight. It has also been determined that the phosphate binding kinetic of LDOC resulting from the present invention versus LDOC resulting from the process of the '782 patent are different as well. […] In one embodiment, therefore, the lanthanum oxycarbonate and, in another embodiment, the LDOC of the inventions have a binding kinetic at pH 6.5 at 60 minutes, of at least 150 mg PO4 per gram of lanthanum oxycarbonate/LDOC. In another embodiment, the lanthanum oxycarbonate and LDOC of the invention have a binding kinetic of at least about 180 mg PO4 per gram compound and in still a further embodiment, at least about 200 mg PO4 per gram compound. The BET surface area of the material tested was 6-7 m^2/g for RZB012 (lanthanum oxycarbonate in accordance with the '782 patent) and was about 33.9 for La2O2CO3 in accordance with the invention. Moreover, it is believed that the porosity, bulk density and flow characteristics of LDOC made in accordance with the present invention surpassed those made in accordance with the teachings of the '782 patent.
Phosphate binding kinetics and binding capacity as illustrated in FIG. 10 as described herein (particularly with regard to RZB-012) can be measured as follows:
Stock phosphate solution (0.00527 mol PO43—per Liter—500 mg PO43—per Liter)
3. Using a graduated cylinder measure out 1.0 L of the stock phosphate solution
4. Add the phosphate solution to a 1.5 L Pyrex beaker. The beaker should be sufficiently large to contain the phosphate solution and allow for a 30% volume increase
5. Run at ambient […] or 37° C. as indicated in the analytical request. If 37° C. is requested place the 1.5 L beaker containing the 1.0 L of test solution on a temperature controlled hot plate. Set temperature to 37° C. […] 6. Stir the solution constantly using an electric stirrer equipped with an impeller. Stir rate should be […] (verify with tachometer). 7. Using a 10 ml syringe remove 5 mls of solution and dispense it into a labeled sample tube. This is the T=0 sample 8. […]

[3] = at 10 minutes, pH 3, FIG. 20 of the '782 patent; cited from earlier work

For `O=C([O-])[O-].[La+3].[OH-]` [Batch 101008, lanthanum carbonate hydroxide], the “Bulk Density” value (Bulk density) was 0.15 g/cc and the “Surface Area” value (BET surface area; Renazorb-013 (LCH), second block of experiments) was 14.3 m^2/g.

For `O=C([O-])[O-].[La+3].[OH-]` [RZB-011, lanthanum carbonate hydroxide], the pore diameter comparison [1] was “not much difference in the values of pore diameter”.

In the case of `O=C([O-])[O-].[La+3].[La+3].[O-2].[O-2]` [RZB-14 (264314)], the “Pore Size, Average pore width (nm)” value [1] is reported as 3.404 nm, the “Pore Size, Adsorption pore diameter (nm)” value [1] is reported as 5.7595 nm and the “Pore volume, Adsorption (cumulative) (cm^3/g)” value [1] is reported as 0.0499 cm^3/g. The “Surface Area, Adsorption (cumulative) (m^2/g)” value [1] was 34.6533 m^2/g, the “Pore Size, Desorption pore diameter (nm)” value [1] was 6.0183 nm and the “Pore volume, Desorption (cumulative) (cm^3/g)” value [1] was 0.05346 cm^3/g. The “Surface Area, Desorption (cumulative) (m^2/g)” value [1] was 35.5324 m^2/g, the “Pore volume, Total-<6.4182 nM (cm^3/g)” value [1] was 0.02724 cm^3/g and the “Surface Area, BET Surface area (m^2/g)” value (BET surface area) was 32.0039 m^2/g.

For `O=C([O-])[O-].[La+3].[La+3].[O-2].[O-2]` [RZB-14 (264317)], the “Pore Size, Average pore width (nm)” value [1] was 4.699 nm, the “Pore Size, Adsorption pore diameter (nm)” value [1] was 5.5584 nm and the “Pore volume, Adsorption (cumulative) (cm^3/g)” value [1] was 0.03991 cm^3/g. For the same compound, the “Surface Area, Adsorption (cumulative) (m^2/g)” value [1] was 28.7342 m^2/g, the “Pore Size, Desorption pore diameter (nm)” value [1] was 4.8008 nm and the “Pore volume, Desorption (cumulative) (cm^3/g)” value [1] was 0.04068 cm^3/g. The “Surface Area, Desorption (cumulative) (m^2/g)” value [1] was 33.8946 m^2/g, the “Pore volume, Total-<6.4182 nM (cm^3/g)” value [1] was 0.02973 cm^3/g and the “Surface Area, BET Surface area (m^2/g)” value (BET surface area) was 25.3032 m^2/g.

With `O=C([O-])[O-].[La+3].[La+3].[O-2].[O-2]` [RZB-014, Lanthanum dioxycarbonate] the “phosphate binding at a pH of 3 or below” value [2] was “about the same”, the “amount of phosphate bound in 60 minutes” value [2] was “approximately 240 mg PO4 bound per gram of compound” and the pore diameter comparison [1] was “not much difference in the values of pore diameter”. For the same compound, the “pore volume compared with RZB-12 and RZB-11” value ([1]; both lots of RZB-14) was “much higher pore volumes than RZB-12 and slightly bigger pore volume than RZB-11”, the “surface area compared with RZB-11 & 12” value ([1]; two lots of RZB-14) was “greater” and the “BET surface area of the material tested” value (BET surface area) was “about 33.9 m^2/g”.

With “lanthanum oxycarbonate [RZB-012, reference compound]” the “phosphate binding at a pH of 3 or below” value [2] was “about the same”, the “amount of phosphate bound in 60 minutes” value [2] was “about 118 mg PO4 bound per gram of compound” and the pore diameter comparison [1] was “not much difference in the values of pore diameter”. For the same compound, the “BET surface area of the material tested” value (BET surface area) was 6-7 m^2/g.

For lanthanum tricarbonate tetrahydrate, the “percent of the available phosphate bound” value [3] is given as “about 40%”.
